The subject of one data set is PDE5. The settings on record: training set, supplement reference list, read-out: PDE5 IC50 Experimental, cited from earlier work.
Data set [1] addresses phosphodiesterase enzyme type 5 (PDE5) (Homo sapiens, UniProt O76074). As to the kind of experiment: In vitro enzyme assay (Transcreener fluorescence polarization). In kind it is biochemical. The settings on record: 10-dose, 3-fold serial dilution starting at 50 uM. Here is the method: Tested compounds (series B, D, E and G) were tested against phosphodiesterase enzyme type 5 (PDE5) in order to investigate their inhibitory activities. The in vitro enzyme assay was conducted using Transcreener Fluorescence polarization assay to detect the reaction product GMP. The compounds were suspended in DMSO to make 10 mM stock solutions. The procedure was conducted using the following buffer system; 10 mM Tris, pH 7.5, 5 mM MgCl2, 0.01% Brij 35, 1 mM DTT and 1% DMSO. […] The tested samples were added into the enzyme by Acoustic Technology. The substrate was added and incubated for 1 h. Fluorescence polarization (FP) was measured after 90 min incubation at rt and mP was calculated. Data were analyzed based on the GMP standard curve.

pIC50: −log10 of the molar value. Read-outs that look alike come from different tables or passages of the source.

A word on the pIC50: it is the IC50 on a negative log10 scale, so that one unit is a factor of ten. In the case of `CCCc1nn(C)c2c(=S)nc(-c3cc(S(=O)(=O)N4C[C@@H](C)N[C@@H](C)C4)ccc3OCC)[nH]c12` [t15, Thioaildenafil], the negative-log IC50 (pIC50) with PDE5 (ref [3]) is 9.22.

In the case of `CCCc1nn(C)c2c(=O)[nH]c(-c3cc(C(=O)CN4CCN(CCO)CC4)ccc3OCC)nc12` [t10, Hydroxyacetildenafil], in the data set on PDE5 (ref [5]), the pIC50 is 7.23.

For orientation: melting point means the temperature, or range, at which the solid turns liquid. With `O=C(Cc1nc2ncccc2[nH]c1=O)NN1C(=O)C=CC1=O` [Compound 7b], the melting point is 213 to 215 °C.

On to `COc1ccc(/C=N/NCc2nc3ncccc3[nH]c2=O)cc1` [Compound 9d], for which the melting point fell in the range of 256 to 258 °C. In data set [1], this compound had a pIC50 of 7.49.

The compound `CC(=O)N1N=C(Cc2nc3ncccc3[nH]c2=O)OC1c1ccc([N+](=O)[O-])cc1` (centres unmarked) [Compound 11b] had a melting point of 240 to 242 °C. For the same compound, in data set [1], the pIC50 was 7.74.

As for `CC(=O)N1N=C(Cc2nc3ncccc3[nH]c2=O)OC1c1ccccc1` (centres unmarked) [Compound 11a], the melting point was in the range of 234 to 236 °C. Moreover, the pIC50 in data set [1] was 7.58.

With `CCCc1nn(C)c2c(=S)nc(-c3cc(S(=O)(=O)N4CCN(C)CC4)ccc3OCC)[nH]c12` [t11, Thiosildenafil], the pIC50 in the data set on PDE5 (ref [5]) is 9.22.

For the compound `O=c1[nH]c2cccnc2nc1CNc1ccc(Cl)cc1` [Compound 8h], the melting point is over 300 °C.

Consider `O=C(Cc1nc2ncccc2[nH]c1=O)NNC(=O)Nc1ccccc1` [Compound 5a], for which the melting point was in the range of 218 to 220 °C.

As to `CCCc1nc(C)c2c(=O)[nH]c(-c3cc(S(=O)(=O)N4CCN(CC)CC4)ccc3OCC)nn12` [t2, Vardenafil], in the data set with PDE5 (ref [1]), the pIC50 was […].

Turning to `O=C(Cc1nc2ncccc2[nH]c1=O)NN1C(=O)c2ccccc2C1=O` [Compound 7c], the melting point was in the range of 211 to 213 °C.

For the compound `CCCc1nn(C)c2c(=O)[nH]c(-c3cc(C(=O)CN4C[C@@H](C)N[C@@H](C)C4)ccc3OCC)nc12` [t17, Dimethylacetildenafil], in the data set with PDE5 (ref [3]), the pIC50 is 7.29.

`Cc1cccc(NCc2nc3ncccc3[nH]c2=O)c1` [Compound 8f] had a melting point of 258 to 260 °C. The compound further showed a pIC50 in data set [1] of 7.68.

The compound `O=C1Nc2cccnc2N2C1=CNN=C2c1ccc([N+](=O)[O-])cc1` [Compound 12c] came in with a melting point of 222 to 224 °C.

`COc1ccc(C2=NNC=C3C(=O)Nc4cccnc4N32)cc1` [Compound 12d] showed a melting point of 229 to 231 °C.

For `CCCc1nn(C)c2c(=O)[nH]c(-c3cc(S(=O)(=O)N4CCN(CCO)CC4)ccc3OCC)nc12` [t8, Hydroxyhomosildenafil], the negative logarithm of the IC50 (pIC50) in the data set on PDE5 (ref [5]) is 8.47.

As to `O=C(Cc1nc2ncccc2[nH]c1=O)N/N=C/c1ccc([N+](=O)[O-])cc1` [Compound 6b], the pIC50 in data set [1] is 7.17.

As for Carbodenafil [t12], the pIC50 with PDE5 (ref [6]) is 8.28.

Compound `O=C(Cc1nc2ncccc2[nH]c1=O)NNC(=S)Nc1ccccc1` [Compound 5c] showed a melting point of 234 to 236 °C.

`O=C1Nc2cccnc2N2C1=CNN=C2c1ccccc1` [Compound 12a] returned a melting point of 219 to 221 °C.

In turn, `O=C(Cc1nc2ncccc2[nH]c1=O)NNC(=O)Nc1ccc(Cl)cc1` [Compound 5b] came in with a melting point of 230 to 232 °C.

Regarding `O=c1[nH]c2cccnc2nc1CNc1ccccc1` [Compound 8d], the melting point is 248 to 250 °C. Further, the pIC50 in data set [1] is 6.99.

With `Cc1ccc(NCc2nc3ncccc3[nH]c2=O)cc1` [Compound 8g], the melting point is 284 to 286 °C.

In the case of `COc1ccc(CN=c2[nH]c(N3CCC[C@H]3CO)ncc2C(=O)NCc2ncccn2)cc1Cl` [t6, Avanafil], in the data set on PDE5 (ref [5]), the pIC50 is 8.28.

As for `O=c1[nH]c2cccnc2nc1CN/N=C/c1ccc([N+](=O)[O-])cc1` [Compound 9c], the melting point was in the range of 238 to 240 °C. This compound also gave a negative logarithm of the IC50 (pIC50) in data set [1] of 7.38.

With `CCCc1nn(C)c2c(=O)[nH]c(-c3cc(S(=O)(=O)N4CCN(C)CC4)ccc3OCC)nc12` [t1, Sildenafil], the pIC50 in the data set with PDE5 (ref [1]) was 8.66.

`O=C(Cc1nc2ncccc2[nH]c1=O)N/N=C/c1ccccc1` [Compound 6a] had a melting point of 228 to 230 °C. In addition, the pIC50 in data set [1] is 7.23.

Turning to `O=C1Nc2cccnc2N2C1=CNN=C2c1ccc(Cl)cc1` [Compound 12b], the melting point is 222 to 225 °C.

The compound `COc1ccc(C2OC(Cc3nc4ncccc4[nH]c3=O)=NN2C(C)=O)cc1` (centres unmarked) [Compound 11c] showed a melting point of 235 to 237 °C. This compound gave a negative logarithm of the IC50 (pIC50) in data set [1] of 7.51.

`C/C(=N\NCc1nc2ncccc2[nH]c1=O)c1ccccc1` [Compound 9e] registered a melting point of 230 to 233 °C. For the same compound, the negative-log IC50 (pIC50) in data set [1] was 7.53.

`COc1ccc(/C=N/NC(=O)Cc2nc3ncccc3[nH]c2=O)cc1` [Compound 6c]: the melting point lay in the range of 222 to 224 °C. Moreover, the pIC50 in data set [1] was 7.33.

As for `CN1CC(=O)N2[C@H](c3ccc4c(c3)OCO4)c3[nH]c4ccccc4c3C[C@@H]2C1=O` [t3, Tadalafil], the pIC50 in the data set with PDE5 (ref [1]) was 8.92.

Turning to `CCCc1nn(C)c2c(=O)[nH]c(-c3cc(S(=O)(=O)N4CCN(CC)CC4)ccc3OCC)nc12` [t7, Homosildenafil], the pIC50 with PDE5 (ref [5]) was 8.42.

`O=c1[nH]c2cccnc2nc1CN(c1ccccc1)c1ccccc1` [Compound 8j] came in with a melting point of 292 to 293 °C.

With `NN1CC(=O)N2[C@H](c3ccc4c(c3)OCO4)c3[nH]c4ccccc4c3C[C@@H]2C1=O` [t116, Aminotadalafil], the pIC50 in the data set on PDE5 (ref [5]) is 8.38.

Turning to `O=c1[nH]c2cccnc2nc1CN/N=C/c1ccccc1` [Compound 9a], the melting point fell in the range of 234 to 236 °C. In data set [1], the pIC50 was 7.49.

Compound `O=c1[nH]c2cccnc2nc1CN1CCCCC1` [Compound 8b] showed a melting point of 277 to 279 °C. For the same compound, the pIC50 in data set [1] is 7.35.

As to `CCCOc1ccc(S(=O)(=O)NCCC2CCCN2C)cc1-c1nc2c(CCC)nn(C)c2c(=O)[nH]1` (centres unmarked) [t13, Udenafil], the pIC50 with PDE5 (ref [6]) is 8.08.

As to `CCCc1nn(C)c2c(=O)[nH]c(-c3cc([N+](=O)[O-])ccc3OCC)nc12` [t16, Nitrodenafil], the pIC50 in the data set on PDE5 (ref [3]) was 7.17.

`CCN(CC)Cc1nc2ncccc2[nH]c1=O` [Compound 8a]: the melting point lay within 262 to 263 °C. In addition, the pIC50 in data set [1] is 7.03.

On to `COc1ccc(CNC(=O)c2cc([N+](=O)[O-])ccc2NC(C)CO)cc1OC` (centres unmarked) [t5, Benzamidenafil], for which the pIC50 in the data set on PDE5 (ref [3]) is 8.96.

`CCCc1nn(C)c2c(=O)[nH]c(-c3cc(C(=O)CN4CCN(CC)CC4)ccc3OCC)nc12` [t9, Acetildenafil]: the pIC50 in the data set with PDE5 (ref [5]) was 8.12.

Consider `CCCOc1ccccc1-c1nc2nn[nH]c2c(=O)[nH]1` [t18, Zaprinast], for which the pIC50 with PDE5 (ref [7]) is […].

Take `O=c1[nH]c2cccnc2nc1Cc1n[nH]c(=O)n1-c1ccccc1` [Compound 10a]: the melting point was 220 to 222 °C.

The compound `O=c1[nH]c2cccnc2nc1CN1CCOCC1` [Compound 8c] yielded a melting point of 234 to 235 °C. In data set [1], this compound had a pIC50 of 7.05.

In turn, `O=c1[nH]c2cccnc2nc1Cc1n[nH]c(=S)n1-c1ccccc1` [Compound 10c] gave a melting point of 219 to 222 °C.

The compound `O=C(Cc1nc2ncccc2[nH]c1=O)NN1C(=O)CCC1=O` [Compound 7a] showed a melting point of 210 to 212 °C.

The compound `O=c1[nH]c2cccnc2nc1CNc1ccc(Br)cc1` [Compound 8i] registered a melting point of over 300 °C. In data set [1], this compound had a pIC50 of 6.86.

Compound `O=c1[nH]c2cccnc2nc1CN/N=C/c1ccc(Cl)cc1` [Compound 9b] came in with a melting point of 237 to 239 °C. Also, in data set [1], the pIC50 was 7.52.

Source of the values: article PMC9501832 (Pharmaceutics, 2022).
